{"source": "patent US8772322B2", "about": "“Synergistic preservative compositions” (ISP Investments Inc., priority 2010, dated 2014); for growth: key: growth of the microorganism took place (symbol '+'); or not (symbol '−')", "format_in_all_cases": "cell-based", "key": {"[1]": {"tested_on": "Pseudomonas aeruginosa (ATCC 9027)", "assay": "MIC / growth test of aqueous biocide mixtures, same protocol as Example 1, with synergy index; for growth: key: growth of the microorganism took place (symbol '+'); or not (symbol '−')", "experimental": "(§1) Synergy is determined from combination studies of the different actives according to the method of calculation put forward by F. C. Kull et al, Applied Microbiology, 9:538 (1961): Synergy Index (SI)=Qa/QA+Qb/QB\n(§2) Where • Qa=concentration of component A in the biocide composition showing the desired effect (e.g. no growth of microorganisms) • QA=concentration of component A as single component showing the desired effect • Qb=concentration of component B in the biocide composition showing the desired effect and • QB=concentration of component B as single component showing the desired effect\n(§3) For a system consisting of three active components the synergy index is calculated by the formula: Synergy Index (SI)=Qa/QA+Qb/QB+Qc/QC\n(§4) Synergy in a composition then exists when the synergy index is less than 1.\n(§5) In this example synergy is shown against the microorganism Staphylococcus aureus (ATCC 6538). For this purpose MIC values were determined for each individual active as well as for different combinations of the 3 actives. MIC (Minimum Inhibitory Concentration) defines the lowest concentration level of a substance to inhibit the growth of a given organism.\n(§6) The cell density of S. aureus was 10*5 cells/ml. The incubation time was 24 hr at 32° C.\n(§7) TSB (Tryptic Soy […]) was used as nutrient medium.\nIn this example synergy is shown against the microorganism Pseudomonas aeruginosa (ATCC 9027).\n(§8) The test protocol is the same as described under Example 1.\nIn Table 4 the synergy index has been calculated."}, "[2]": {"tested_on": "Escherichia coli (ATCC 8793)", "assay": "MIC / growth test of aqueous biocide mixtures, same protocol as Example 1, with synergy index", "experimental": "as §1, §2, §3, §4, §5, §6, §7\nIn this example synergy is shown against the microorganism Escherichia coli (ATCC 8793).\nas §8\nIn Table 6 the synergy index has been calculated."}, "[3]": {"tested_on": "Staphylococcus aureus (ATCC 6538)", "assay": "MIC / growth test of aqueous biocide mixtures in TSB, 24 hr at 32° C., with synergy index (Kull)", "experimental": "as §1, §2, §3, §4, §5\nSubsequently the activity of these mixtures were tested against Staphylococcus aureus.\nas §6, §7\nIn this way the table represents the MIC value for each tested combination."}, "[4]": {"conditions": "in combination with IPBC 3.9 + CMIT/MIT 0.75 ppm"}, "[5]": {"conditions": "in combination with IPBC 7.8 + CMIT/MIT 0.75 ppm"}, "[6]": {"conditions": "in combination with IPBC 15.6 + CMIT/MIT 0.75 ppm"}, "[7]": {"conditions": "in combination with IPBC 31.2 + CMIT/MIT 0.75 ppm"}, "[8]": {"conditions": "single active, incubation time 24 hours"}}, "data": [{"smiles": "O=c1[nH]sc2ccccc12", "note": "[BIT, 1,2-Benzisothiazolin-3-one]", "values": [{"measurement": "growth", "setting": "[1]; BIT 6.25 ppm, single active", "result": "+"}, {"measurement": "growth", "setting": "[1]; BIT 12.5 ppm, single active", "result": "+"}, {"measurement": "growth", "setting": "[1]; BIT 25 ppm, single active", "result": "+"}, {"measurement": "growth", "setting": "[1]; BIT 50 ppm, single active", "result": "−"}, {"measurement": "growth", "setting": "[1]; BIT 100 ppm, single active", "result": "−"}, {"measurement": "growth", "setting": "[1]; BIT 200 ppm, single active", "result": "−"}, {"measurement": "MIC BIT con. Qb", "setting": "[1]; [4]", "result": 12.5, "unit": "ppm"}, {"measurement": "MIC BIT con. Qb", "setting": "[1]; [5]", "result": 12.5, "unit": "ppm"}, {"measurement": "MIC BIT con. Qb", "setting": "[1]; [6]", "result": 12.5, "unit": "ppm"}, {"measurement": "MIC BIT con. Qb", "setting": "[1]; [7]", "result": 12.5, "unit": "ppm"}, {"measurement": "MIC BIT con. Qb", "setting": "[1]; in combination with IPBC 62.5 + CMIT/MIT 0.75 ppm", "result": 6.25, "unit": "ppm"}, {"measurement": "MIC BIT con. Qb", "setting": "[1]; in combination with IPBC 125 + CMIT/MIT 0.75 ppm", "result": 6.25, "unit": "ppm"}, {"measurement": "MIC BIT con. Qb", "setting": "[1]; in combination with IPBC 125 ppm, CMIT/MIT 0", "result": 25, "unit": "ppm"}, {"measurement": "MIC as single component (QA, QB, QC)", "setting": "[1]; [8]", "result": 50, "unit": "ppm"}, {"measurement": "growth", "setting": "[2]; BIT 1.56 ppm, single active", "result": "+"}, {"measurement": "growth", "setting": "[2]; BIT 3.12 ppm, single active", "result": "+"}, {"measurement": "growth", "setting": "[2]; BIT 6.25 ppm, single active", "result": "−"}, {"measurement": "growth", "setting": "[2]; BIT 12.5 ppm, single active", "result": "−"}, {"measurement": "growth", "setting": "[2]; BIT 25 ppm, single active", "result": "−"}, {"measurement": "growth", "setting": "[2]; BIT 50 ppm, single active", "result": "−"}, {"measurement": "growth", "setting": "[2]; BIT 100 ppm, single active", "result": "−"}, {"measurement": "MIC BIT con. Qb", "setting": "[2]; in combination with IPBC 0.98 + CMIT/MIT 0.75 ppm", "result": 3.12, "unit": "ppm"}, {"measurement": "MIC BIT con. Qb", "setting": "[2]; in combination with IPBC 1.95 + CMIT/MIT 0.75 ppm", "result": 3.12, "unit": "ppm"}, {"measurement": "MIC BIT con. Qb", "setting": "[2]; in combination with IPBC 3.9 + CMIT/MIT 0.19 ppm", "result": 3.12, "unit": "ppm"}, {"measurement": "MIC BIT con. Qb", "setting": "[2]; [4]", "result": 3.12, "unit": "ppm"}, {"measurement": "MIC BIT con. Qb", "setting": "[2]; in combination with IPBC 7.8 + CMIT/MIT 0.19 ppm", "result": 3.12, "unit": "ppm"}, {"measurement": "MIC BIT con. Qb", "setting": "[2]; [5]", "result": 3.12, "unit": "ppm"}, {"measurement": "MIC BIT con. Qb", "setting": "[2]; in combination with IPBC 15.6 + CMIT/MIT 0.19 ppm", "result": 3.12, "unit": "ppm"}, {"measurement": "MIC BIT con. Qb", "setting": "[2]; [6]", "result": 3.12, "unit": "ppm"}, {"measurement": "MIC BIT con. Qb", "setting": "[2]; in combination with IPBC 31.2 + CMIT/MIT 0.19 ppm", "result": 3.12, "unit": "ppm"}, {"measurement": "MIC BIT con. Qb", "setting": "[2]; [7]", "result": 0.78, "unit": "ppm"}, {"measurement": "MIC BIT con. Qb", "setting": "[2]; in combination with IPBC 62.5 + CMIT/MIT 0.19 ppm", "result": 1.56, "unit": "ppm"}, {"measurement": "MIC BIT con. Qb", "setting": "[2]; in combination with IPBC 62.5 ppm, CMIT/MIT 0", "result": 3.12, "unit": "ppm"}, {"measurement": "MIC as single component (QA, QB, QC)", "setting": "[2]; [8]", "result": 6.25, "unit": "ppm"}, {"measurement": "growth", "setting": "[3]; BIT 0.01 ppm, IPBC 0, without CMIT/MIT", "result": "+"}, {"measurement": "growth", "setting": "[3]; BIT 0.03 ppm, IPBC 0, without CMIT/MIT", "result": "+"}, {"measurement": "growth", "setting": "[3]; BIT 0.05 ppm, IPBC 0, without CMIT/MIT", "result": "+"}, {"measurement": "growth", "setting": "[3]; BIT 0.1 ppm, IPBC 0, without CMIT/MIT", "result": "+"}, {"measurement": "growth", "setting": "[3]; BIT 0.19 ppm, IPBC 0, without CMIT/MIT", "result": "+"}, {"measurement": "growth", "setting": "[3]; BIT 0.39 ppm, IPBC 0, without CMIT/MIT", "result": "+"}, {"measurement": "growth", "setting": "[3]; BIT 0.78 ppm, IPBC 0, without CMIT/MIT", "result": "+"}, {"measurement": "growth", "setting": "[3]; BIT 1.56 ppm, IPBC 0, without CMIT/MIT", "result": "+"}, {"measurement": "growth", "setting": "[3]; BIT 3.12 ppm, IPBC 0, without CMIT/MIT", "result": "−"}, {"measurement": "growth", "setting": "[3]; BIT 3.12 ppm, single active", "result": "+"}, {"measurement": "growth", "setting": "[3]; BIT 6.25 ppm, IPBC 0, without CMIT/MIT", "result": "−"}, {"measurement": "growth", "setting": "[3]; BIT 6.25 ppm, single active", "result": "−"}, {"measurement": "growth", "setting": "[3]; BIT 12.5 ppm, IPBC 0, without CMIT/MIT", "result": "−"}, {"measurement": "growth", "setting": "[3]; BIT 12.5 ppm, single active", "result": "−"}, {"measurement": "growth", "setting": "[3]; BIT 25 ppm, single active", "result": "−"}, {"measurement": "growth", "setting": "[3]; BIT 50 ppm, single active", "result": "−"}, {"measurement": "growth", "setting": "[3]; BIT 100 ppm, single active", "result": "−"}, {"measurement": "MIC BIT con. Qb", "setting": "[3]; in combination with IPBC 0.49 + CMIT/MIT 1.5 ppm", "result": 0.78, "unit": "ppm"}, {"measurement": "MIC BIT con. Qb", "setting": "[3]; in combination with IPBC 0.98 + CMIT/MIT 1.5 ppm", "result": 0.78, "unit": "ppm"}, {"measurement": "MIC BIT con. Qb", "setting": "[3]; in combination with IPBC 1.95 + CMIT/MIT 0.37 ppm", "result": 1.56, "unit": "ppm"}, {"measurement": "MIC BIT con. Qb", "setting": "[3]; in combination with IPBC 1.95 + CMIT/MIT 1.5 ppm", "result": 0.78, "unit": "ppm"}, {"measurement": "MIC BIT con. Qb", "setting": "[3]; in combination with IPBC 3.9 + CMIT/MIT 0.37 ppm", "result": 1.56, "unit": "ppm"}, {"measurement": "MIC BIT con. Qb", "setting": "[3]; in combination with IPBC 3.9 + CMIT/MIT 1.5 ppm", "result": 0.39, "unit": "ppm"}, {"measurement": "MIC BIT con. Qb", "setting": "[3]; in combination with IPBC 3.9 ppm, CMIT/MIT 0", "result": 1.56, "unit": "ppm"}, {"measurement": "MIC BIT con. Qb", "setting": "[3]; in combination with IPBC 7.8 + CMIT/MIT 0.37 ppm", "result": 1.56, "unit": "ppm"}, {"measurement": "MIC BIT con. Qb", "setting": "[3]; in combination with IPBC 7.8 + CMIT/MIT 1.5 ppm", "result": 0.01, "unit": "ppm"}, {"measurement": "MIC BIT con. Qb", "setting": "[3]; in combination with IPBC 7.8 ppm, CMIT/MIT 0", "result": 0.78, "unit": "ppm"}, {"measurement": "MIC as single component (QA, QB, Qc)", "setting": "[3]; [8]", "result": 6.25, "unit": "ppm"}]}]}
